Results on 5 substances are retold here after patent US7482427B2, “Positive modulator of bone morphogenic protein-2” (BioSurface Engineering Technologies, Inc., priority 2002, dated 2009).

One test concerns C2C12 cells. Description: Alkaline phosphatase (ALP) activity assay in C2C12 cells. The format is cell-based, Mouse. The note with it: for induction of ALP by growth factor in the presence of B2A2: B2A2 1000 ng/mL, FGF-2 50 ng/mL, VEGF 25 ng/mL, TGF-β1 50 pg/mL, 3 days. How it is done:
Alkaline phosphatase (ALP) Activity Assay. C2C12 cells and C3H10T½ cells were cultured at 37° C. in a humidified atmosphere of 5% CO2 and 95% air, with DMEM/F12 medium supplemented with 10% serum, penicillin/streptomycin. […] At 4-5 days post induction, ALP activity was determined as described by Akiyama and colleagues (Akiyama et al. 1997, Exp Cell Res 235(2):362-9.) with modifications. Briefly, cells were washed once with phosphate-buffered saline (PBS) and lysed with 0.1% Triton×100 in 10 mM Tris HCl, pH 9.0. Protein concentration was determined using the BCA Protein Assay Kit (Pierce Biotechnology, Rockford, Ill.). Then ALP activity was measured by adding ALP buffer (1 M diethanolamine, 0.5 mM MgCl2, 1 mg/mL p-nitrophenylphosphate, pH 9.0), incubating in 37° C., and absorbance (405 nm) read at 15, 30 and 60 minutes using a microplate spectrophotometer (Molecular Devices, Sunnyvale, Calif.). The activity was expressed as O.D. per mg protein per hour.
B2A2 was tested to determine whether B2A2 enhanced the biological effects of CHO-produced rhBMP-2. […] Points represent means of quintuplicate determinations±SD.
B2A2 was tested in combination with other growth factors including FGF-2, VEGF, and tGF-β1 for induction of ALP in C2C12 cells. […] Mouse C2C12 cells were cultured as described for FIG. 1A, treated with a combination of various growth factors plus or minus B2A2, incubated for 3 days, and then assayed for ALP activity as described for FIG. 1A. […] Bars represent means of quintuplicate determinations±SD.
Mouse C2C12 cells were cultured as before and B2A2 (1000 ng/mL) was added to some wells. After a 45 minute incubation all wells were rinsed with fresh medium and the medium was replaced. […] After 5 days ALP activity was measured. […] Data is the means of triplicates±SD.
In FIG. 5A, a polystyrene surface of 96-well plates were first coated by silyl-heparin (open bars), followed by a 1 μg/mL solution of B2A2 (solid bars) in PBS for (1 hr at 37° C.) and rinsed in PBS and dried at room temperature. […] ALP activity was measured five days later. Data is the means of triplicates±SD.
In FIG. 5B, stainless steel wafers were first coated with silyl-heparin (open bars) followed by 100 μg/mL B2A2 in PBS as a second coating (solid bars) and rinsed in PBS and dried at room temperature. Wafers were coated separately in wells of a 24-well plate and transferred to a fresh untreated plate prior to cell seeding.
ALP activity was measured five days later. Data is the means of triplicates±SD.

Test [1] has as its system C3H10T½, MC3T3 cells or hFOB. Put plainly: Cell migration across simulated wound margin, positive control (cell line not specified). The test is classed as cell-based. Conditions: positive control reference, FGF-2 50 ng/mL, 6 hours (data not shown). How it is done: Cell migration. For studies involving migration across a wound margin, the cells were grown in vitro and used when approximately 90% confluent. A simulated wound was made by scraping cells away from the cultureware surface. The cultures were rinsed to remove unbound cells, and then incubated in DMEM:F12 medium containing 2% newborn calf serum with or without peptide. FGF-2 (50 ng/mL) was used as a positive control reference material. The cells were allowed to migrate for 6 hours after which the cells were fixed in buffered formalin. Migration was monitored via phase contrast microscopy. Migrating cells were those that had migrated across the site of the simulated wound margin.
B2A2-K-NS was tested for its ability to induce cells of preosteoblast origin to migrate to a stimulated wound margin. Murine C3H10T½, MC3T3 cells or hFOB were grown to near confluency in vitro. A stimulated wound was made by scraping the cells away from the substrate. The cells were allowed to migrate for 6 hours after which migration was monitored via microscopy. Statistical significance was determined using ANOVA followed by post hoc testing using multiple comparison versus control group (Dunnett's Method). […] Table 3 summarizes the increase in migrating cells at the simulated wound margin induced by about 0.2 to 2.0 μg/mL B2A2-K-NS.

Test [2] has as its system BMPR and ActivinR isoforms. Description: Solid phase receptor binding assay, panel of receptor/Fc chimeras. Conditions: insulin adsorbed to plates; Endostatin-Fc as unrelated chimeric protein. How it is done: Receptor binding assays. Binding to BMP receptors in a solid phase binding assay. B2A2 was absorded onto ELISA plates to saturation, soluble BMP receptor-immunoglobin Fc fusion proteins were added, and bound receptor was detected by HRP-conjugated anti-Fc antibody and colorimetric assay, values shown are background substracted. Specific binding of B2A2 to different receptor isoforms of the BMPR and Activin Receptor family were tested, employing the receptor-Fc chimeras shown. […] Bound receptor was displaced by the addition of rhBMP-2 at the levels indicated.
The compound of Example 2 was tested for specific binding to Bone Morphogenic Protein-2 receptors. Referring now to FIG. 12, results of solid phase receptor binding assays utilizing purified receptor/Fc chimeric molecules are illustrated. The chimeras are recombinant constructs of the soluble ectodomain of various receptor molecules (BMPR and ActivinR isoforms) fused to the carboxyl-terminal of the human IgG1 Fc region via a polypeptide liner. ELISA plates were coated with B2A2 or control compounds, soluble chimeric receptor/Fc antibody and quantified with a colorimeteric ELISA.

Take “TGF-B: growth factor purchased from Sigma Aldrich, tested in combination with B2A2”: the “induction of ALP by growth factor in the presence of B2A2” value (shortened to “induction of ALP by growth factor”) with C2C12 cells is listed as “failed to induce ALP”.

Take “FGF-2: growth factor, positive control reference material for migration (50 ng/mL)”: in test [1], the “migrating cells compared to controls” value is recorded as “significant increase in migrating cells”. In the test with C2C12 cells, the “induction of ALP by growth factor” value was “failed to induce ALP”.

As to “benzyl-tetra(dimethylsilylmethyl)oxycarbamoyl-heparin [silyl-heparin, reference compound]”, the “ALP activity on coated polystyrene surface” value in the test with C2C12 cells (silyl-heparin coating alone, BMP-2 50 ng/mL in solution, 5 days) is listed as “potentiates BMP-2 activity”.

With Insulin, the “binding of negative controls” value in test [2] was “did not bind”.

In the case of VEGF, the “induction of ALP by growth factor” value with C2C12 cells is “failed to induce ALP”.
